Reference: paper PMC7600679, “Benzoxazole-Based Metal Complexes to Reverse Multidrug Resistance in Bacteria” (Antibiotics, 2020)

System: C. violaceum 026 sensor strain with AHL producer E. cloacae 31298
Assay: Quorum sensing inhibition (agar diffusion, violacein production)
Assay type: cell-based, Chromobacterium violaceum
Conditions: disc with 10 μL of 1 mM stock; reduction of violacein zone
Method: The following bacterial strains were applied in the QS tests: C. violaceum 026 as sensor strain and E. cloacae 31298 isolated from clinical wound (used as N-acyl-homoserine lactone (AHL) producer); this strain induced pigment production by C. violaceum and is a model strain to study QS interactions.
LB* was applied for these experiments. The sensor strain C. violaceum 026 and the AHL producer strains E. cloacae 31298 were inoculated as parallel lines and incubated at room temperature for 24–48 h. The inhibition of bacterial communication was determined by the agar diffusion method. Filter paper discs (7.0 mm in diameter) were impregnated with 10 μL of stock solutions (1 mM) of the compounds in DMSO. The discs were placed between the parallel lines of the sensor and the AHL producer strains. The plates were kept at room temperature for another 24–48 h, and the interactions between the strains and compounds were determined as the reduction in the size of the zone of purple pigment (violacein) production in millimeters. PMZ was applied as a positive control.

SMILES | Inhibition zone (quorum sensing) [mm]
O=C(Cc1nc2ccccc2o1)C(F)F [Compound 3] | 56
[O-]C(=Cc1nc2ccccc2o1)C(F)(F)Cl.[O-]C(=Cc1nc2ccccc2o1)C(F)(F)Cl.[Zn+2] [Compound 5] | 16
